Laboratory results published in ChEMBL document CHEMBL5625252, “Synthesis of peptidomimetics as antibiotic adjuvants for combination with aztreonam to combat MDR Pseudomonas aeruginosa” (Eur J Med Chem, 2023).
Values after ≈ are worked out from the molar mass of the structure shown. Active and inactive are the calls of the source. The calls are words filed in the database; no cut-off is given here. Where a SMILES comes first, the peptide text is derived from it. The star is where a group is joined. βNA = c1ccc2cc(N*)ccc2c1

Tests used:
Pseudomonas aeruginosa [1] = assay: Antibacterial activity against Pseudomonas aeruginosa PAO1 assessed as inhibition of bacterial growth incubated for 18 hrs by agar dilution method; assay type: functional
Pseudomonas aeruginosa [2] = assay: Synergistic antibacterial activity against Pseudomonas aeruginosa PAO1 assessed as fractional inhibitory concentration index incubated for 18 hrs in presence of aztreonam by checkerboard method; assay type: functional
[3] = Cytotoxicity against human LX2 cells incubated for 24 hrs by MTT assay; assay type: toxicity, cell-based; details: LX-2 cells
Pseudomonas aeruginosa [4] = assay: Antibacterial activity against Pseudomonas aeruginosa 23-Y122 assessed as inhibition of bacterial growth incubated for 18 hrs by agar dilution method; assay type: functional
Pseudomonas aeruginosa [5] = assay: Antibacterial activity against Pseudomonas aeruginosa 23-Y511 assessed as inhibition of bacterial growth incubated for 18 hrs by agar dilution method; assay type: functional
Pseudomonas aeruginosa [6] = assay: Antibacterial activity against Pseudomonas aeruginosa 16-2 assessed as inhibition of bacterial growth incubated for 18 hrs by agar dilution method; assay type: functional
Pseudomonas aeruginosa [7] = assay: Antibacterial activity against Pseudomonas aeruginosa 19-46 assessed as inhibition of bacterial growth incubated for 18 hrs by agar dilution method; assay type: functional
Pseudomonas aeruginosa [8] = assay: Synergistic antibacterial activity against Pseudomonas aeruginosa 23-Y122 assessed as aztreonam MIC at 128 ug/ml incubated for 18 hrs by checkerboard method; assay type: functional; details: dose 128 µg/ml
Pseudomonas aeruginosa [9] = assay: Synergistic antibacterial activity against Pseudomonas aeruginosa 13-17 assessed as aztreonam MIC at 128 ug/ml incubated for 18 hrs by checkerboard method; assay type: functional; details: dose 128 µg/ml
Pseudomonas aeruginosa [10] = assay: Synergistic antibacterial activity against Pseudomonas aeruginosa 16-2 assessed as aztreonam MIC at 128 ug/ml incubated for 18 hrs by checkerboard method; assay type: functional; details: dose 128 µg/ml
Pseudomonas aeruginosa [11] = assay: Synergistic antibacterial activity against Pseudomonas aeruginosa 19-55 assessed as aztreonam MIC at 128 ug/ml incubated for 18 hrs by checkerboard method; assay type: functional; details: dose 128 µg/ml
Pseudomonas aeruginosa [12] = assay: Synergistic antibacterial activity against Pseudomonas aeruginosa 23-Y364 assessed as aztreonam MIC at 128 ug/ml incubated for 18 hrs by checkerboard method; assay type: functional; details: dose 128 µg/ml
Pseudomonas aeruginosa [13] = assay: Synergistic antibacterial activity against Pseudomonas aeruginosa 16-11 assessed as fractional inhibitory concentration index at 128 ug/ml incubated for 18 hrs in presence of aztreonam by checkerboard method; assay type: functional; details: dose 128 µg/ml
Pseudomonas aeruginosa [14] = assay: Synergistic antibacterial activity against Pseudomonas aeruginosa 23-Y122 assessed as fractional inhibitory concentration index at 128 ug/ml incubated for 18 hrs in presence of aztreonam by checkerboard method; assay type: functional; details: dose 128 µg/ml
Pseudomonas aeruginosa [15] = assay: Synergistic antibacterial activity against Pseudomonas aeruginosa 23-Y372 assessed as fractional inhibitory concentration index at 128 ug/ml incubated for 18 hrs in presence of aztreonam by checkerboard method; assay type: functional; details: dose 128 µg/ml
Pseudomonas aeruginosa [16] = assay: Synergistic antibacterial activity against Pseudomonas aeruginosa 23-Y511 assessed as fractional inhibitory concentration index at 128 ug/ml incubated for 18 hrs in presence of aztreonam by checkerboard method; assay type: functional; details: dose 128 µg/ml
Pseudomonas aeruginosa [17] = assay: Synergistic antibacterial activity against Pseudomonas aeruginosa 12-1 assessed as fractional inhibitory concentration index at 128 ug/ml incubated for 18 hrs in presence of aztreonam by checkerboard method; assay type: functional; details: dose 128 µg/ml
Pseudomonas aeruginosa [18] = assay: Synergistic antibacterial activity against Pseudomonas aeruginosa 16-2 assessed as fractional inhibitory concentration index at 128 ug/ml incubated for 18 hrs in presence of aztreonam by checkerboard method; assay type: functional; details: dose 128 µg/ml
Pseudomonas aeruginosa [19] = assay: Synergistic antibacterial activity against Pseudomonas aeruginosa 21-2 assessed as fractional inhibitory concentration index at 128 ug/ml incubated for 18 hrs in presence of aztreonam by checkerboard method; assay type: functional; details: dose 128 µg/ml
Pseudomonas aeruginosa [20] = assay: Synergistic antibacterial activity against Pseudomonas aeruginosa 23-Y539 assessed as fractional inhibitory concentration index at 128 ug/ml incubated for 18 hrs in presence of aztreonam by checkerboard method; assay type: functional; details: dose 128 µg/ml
Pseudomonas aeruginosa [21] = assay: Synergistic antibacterial activity against Pseudomonas aeruginosa 23-Y364 assessed as fractional inhibitory concentration index at 128 ug/ml incubated for 18 hrs in presence of aztreonam by checkerboard method; assay type: functional; details: dose 128 µg/ml
Pseudomonas aeruginosa [22] = assay: Antibacterial activity against Pseudomonas aeruginosa 16-2 at 128 ug/ml measured upto 24 hrs in presence of aztreonam by time-kill assay; assay type: functional, organism-based; details: dose 128.0 µg/ml
Pseudomonas aeruginosa [23] = assay: Antibacterial activity against Pseudomonas aeruginosa PAO1 at 128 ug/ml measured upto 24 hrs by time-kill assay; assay type: functional, organism-based; details: dose 128.0 µg/ml
Pseudomonas aeruginosa [24] = assay: Antibacterial activity against Pseudomonas aeruginosa 16-2 at 128 ug/ml measured upto 24 hrs by time-kill assay; assay type: functional, organism-based; details: dose 128.0 µg/ml
Pseudomonas aeruginosa [25] = assay: Antibacterial activity against Pseudomonas aeruginosa 16-2 assessed as decrease in log10 CFU at 128 ug/ml measured after 24 hrs in presence of aztreonam by time-kill assay; assay type: functional; details: dose 128 µg/ml
Pseudomonas aeruginosa [26] = assay: Antibacterial activity against Pseudomonas aeruginosa PAO1 infected in Galleria mellonella assessed as increase in larvae survival at 100 mg/kg after 12 hrs of innoculation; assay type: functional, organism-based
Pseudomonas aeruginosa [27] = assay: Antibacterial activity against Pseudomonas aeruginosa PAO1 infected in Galleria mellonella assessed as increase in larvae survival at 100 mg/kg measured after 96 hrs post inoculation in presence of 25 mg/kg aztreonam; assay type: functional
Pseudomonas aeruginosa [28] = assay: Antibacterial activity against Pseudomonas aeruginosa 16-2 infected in Galleria mellonella assessed as larvae survival rate at 100 mg/kg after 96 hrs of innoculation; assay type: functional
Pseudomonas aeruginosa [29] = assay: Antibacterial activity against Pseudomonas aeruginosa PAO1 infected in Galleria mellonella assessed as larvae survival rate at 100 mg/kg measured after 96 hrs post inoculation in presence of 50 mg/kg aztreonam; assay type: functional
Pseudomonas aeruginosa [30] = assay: Antibacterial activity against Pseudomonas aeruginosa K854 overexpressing MexAB-OprM assessed as fractional inhibitory concentration index upto 128 ug/ml incubated for 18 hrs in presence of aztreonam by checkerboard method; assay type: functional; details: dose <= 128 µg/ml
Pseudomonas aeruginosa [31] = assay: Antibacterial activity against Pseudomonas aeruginosa 13-35 in CAMH broth medium supplemented with 0.41 to 0.51 mM Mg2+ by checkerboard assay; assay type: functional
Pseudomonas aeruginosa [32] = assay: Antibacterial activity against Pseudomonas aeruginosa 12-1 in CAMH broth medium supplemented with 0.41 to 0.51 mM Mg2+ by checkerboard assay; assay type: functional
Pseudomonas aeruginosa [33] = assay: Synergistic antibacterial activity against Pseudomonas aeruginosa 13-35 assessed as aztreonam MIC in CAMH broth medium supplemented with 0.41 to 0.51 mM Mg2+ by checkerboard assay; assay type: functional
Pseudomonas aeruginosa [34] = assay: Synergistic antibacterial activity against Pseudomonas aeruginosa 12-1 assessed as aztreonam MIC in CAMH broth medium supplemented with 0.41 to 0.51 mM Mg2+ by checkerboard assay; assay type: functional
Pseudomonas aeruginosa [35] = assay: Synergistic antibacterial activity against Pseudomonas aeruginosa 13-35 assessed as aztreonam MIC in CAMH broth medium supplemented with 20.99 to 21.09 mM Mg2+ by checkerboard assay; assay type: functional
Pseudomonas aeruginosa [36] = assay: Synergistic antibacterial activity against Pseudomonas aeruginosa 13-35 in CAMH broth medium supplemented with 0.41 to 0.51 mM Mg2+ in presence of aztreonam by checkerboard assay; assay type: functional
Pseudomonas aeruginosa [37] = assay: Synergistic antibacterial activity against Pseudomonas aeruginosa PAO1 assessed as fractional inhibitory concentration index in CAMH broth medium supplemented with 0.41 to 0.51 mM Mg2+ in presence of aztreonam by checkerboard assay; assay type: functional
Pseudomonas aeruginosa [38] = assay: Synergistic antibacterial activity against Pseudomonas aeruginosa 13-35 assessed as fractional inhibitory concentration index in CAMH broth medium supplemented with 20.99 to 21.09 mM Mg2+ in presence of aztreonam by checkerboard assay; assay type: functional

| SMILES | fractional inhibitory concentration index (FICI) (Pseudomonas aeruginosa [2]) | CC50 at 24 h [3] | MIC (Pseudomonas aeruginosa [8]) | fractional inhibitory concentration index (FICI) (Pseudomonas aeruginosa [13]) | fractional inhibitory concentration index (FICI) (Pseudomonas aeruginosa [14]) | fractional inhibitory concentration index (FICI) (Pseudomonas aeruginosa [15]) | fractional inhibitory concentration index (FICI) (Pseudomonas aeruginosa [16]) | fractional inhibitory concentration index (FICI) (Pseudomonas aeruginosa [17]) | fractional inhibitory concentration index (FICI) (Pseudomonas aeruginosa [18]) | fractional inhibitory concentration index (FICI) (Pseudomonas aeruginosa [19]) | fractional inhibitory concentration index (FICI) (Pseudomonas aeruginosa [20]) | fractional inhibitory concentration index (FICI) (Pseudomonas aeruginosa [21]) | fractional inhibitory concentration index (FICI) (Pseudomonas aeruginosa [30]) | MIC (Pseudomonas aeruginosa [31]) | MIC (Pseudomonas aeruginosa [32]) | MIC (Pseudomonas aeruginosa [36]) | fractional inhibitory concentration index (FICI) (Pseudomonas aeruginosa [37]) | fractional inhibitory concentration index (FICI) (Pseudomonas aeruginosa [38]) | other results |
| --- | --- | --- | --- | --- | --- | --- | --- | --- | --- | --- | --- | --- | --- | --- | --- | --- | --- | --- | --- |
| NCCC[C@H](NC(=O)C[C@@H](N)Cc1ccccc1)C(=O)Nc1ccc2ccccc2c1 | 0.375 | > 100 µM | 32 µg/mL | 0.5 | 1.25 | 0.375 | 1 | 0.5 | 0.5 | <0.5 | 0.313 | <0.281 | <0.5 | 512 µg/mL | 512 µg/mL | 128 µg/mL | 0.5 | 0.5 | MIC (Pseudomonas aeruginosa [1]): 512 µg/mL (≈ 1220 µM); MIC (Pseudomonas aeruginosa [4]): 512 µg/mL (≈ 1220 µM); MIC (Pseudomonas aeruginosa [5]): 256 µg/mL (≈ 612 µM); MIC (Pseudomonas aeruginosa [6]): 513 µg/mL (≈ 1230 µM); MIC (Pseudomonas aeruginosa [7]): 512 µg/mL (≈ 1220 µM); MIC (Pseudomonas aeruginosa [9]): 4 µg/mL; MIC (Pseudomonas aeruginosa [10]): 16 µg/mL; MIC (Pseudomonas aeruginosa [11]): 8 µg/mL; MIC (Pseudomonas aeruginosa [12]): 8 µg/mL; Activity (Pseudomonas aeruginosa [22]): Active; Activity (Pseudomonas aeruginosa [23]): inactive; Activity (Pseudomonas aeruginosa [24]): inactive; Activity (Pseudomonas aeruginosa [25]): >2 log10CFU/ml; Activity (Pseudomonas aeruginosa [26]): inactive; Activity (Pseudomonas aeruginosa [27]): 40%; Activity (Pseudomonas aeruginosa [28]): 20%; Activity (Pseudomonas aeruginosa [29]): 80%; MIC (Pseudomonas aeruginosa [33]): 4 µg/mL; MIC (Pseudomonas aeruginosa [34]): 16 µg/mL; MIC (Pseudomonas aeruginosa [35]): 32 µg/mL |
| N=C(N)NCCC[C@H](NC(=O)[C@@H](N)Cc1ccccc1)C(=O)Nc1ccc2ccccc2c1 [PABETAN] (H-Phe-Arg-βNA) | 0.375 | > 100 µM | 16 µg/mL | 0.5 | 0.75 | 0.375 | 1 | 0.375 | 0.5 | 0.5 | 0.313 | 0.281 | <0.75 | 512 µg/mL | 512 µg/mL | 128 µg/mL | 0.5 | 0.375 |  |
